Values quoted from earlier work in patent US3959464A, “Microencapsulated methyl and ethyl parathion insecticide in aqueous carrier” (Pennwalt Corporation, priority 1971, dated 1976).

How the values were obtained:
insects = conditions: ordinary methods of application
[1] = for effect of moisture (hydrolysis): contacted by moisture; for degradation in the field: hydrolysis and oxidation reactions
food crops = conditions: unmodified, unencapsulated

SMILES | period of pesticidal effectiveness in the field (insects) | effect of moisture (hydrolysis) [1] | degradation in the field [1] | phytotoxicity (food crops)
CCOP(=S)(OCC)Oc1ccc([N+](=O)[O-])cc1 [ethyl parathion, O,O-diethyl-O-p-nitrophenol phosphorothioate] | only several days | rendered ineffectual by hydrolysis when contacted by moisture | rapid degradation in the field | chemical phytotoxicity to various food crops
COP(=S)(OC)Oc1ccc([N+](=O)[O-])cc1 [methyl parathion, O,O-dimethyl-O-p-nitrophenol phosphorothioate] | only several days | rendered ineffectual by hydrolysis when contacted by moisture | rapid degradation in the field | chemical phytotoxicity to various food crops
